Test results published in patent publication US20060106032A1, “Synthesis of N2 - (substituted arylmethyl) -3- (substituted phenyl) indazoles as novel anti-angiogenic agents” (YUNG SHIN PHARM. IND. CO., LTD., priority 2004, published 2006).

What was measured:
[1] = system: human umbilial vein endothelial cells (HUVECs); conditions: previous finding; cited from earlier work
[2] = system: VEGF-induced angiogenesis; conditions: previous finding; cited from earlier work
[3] = system: Human umbilical vein endothelial cells (HUVECs); assay: VEGF-induced tube formation of HUVECs on Matrigel; assay type: cell-based; conditions: FIG. 8
Experimental: FIG. 8 show photographs of the results of in vitro assay (inhibition of tube formation). Human umbilical vein endothelial cells were cultured onto chamberslide, which was precoated with Matrigel (10 mg/ml). Cells were treated without (basal and control) or with tested sample (YD-3, 10, 15, 17, 21, 25, 26) and then vascular endothelial growth factor (VEGF) was added to induce tube formation. All photographs were taken at 100×magnification.
(§1) Human umbilical vein endothelial cells (HUVECS) were isolated according to the protocols from Jaffe et al. and obtained from human umbilical cord veins with collagenase and cultured in 75 cm^2 plastic flasks in M199 containing 20% FBS, 15 μg/mL endothelial cell growth supplements (ECGs). Confirmation of their identity as endothelial cells was provided by detection of CD31 (PECAM-1), assessed by immunostaining. Experiments were conducted on HUVECs that had used in passage 2 to 5.

[4] = system: Human umbilical vein endothelial cells (HUVECs); assay: [3H]thymidine incorporation assay: VEGF-induced cell proliferation (DNA synthesis) of HUVECs; assay type: cell-based; conditions: VEGF 10 ng/mL
Experimental: (§2) Human umbilical vein endothelial cells were incubated in the absence (basal and control) or presence of tested sample (YD-3, 10, 15, 17, 21, 25, 26) with 30 μM, and then vascular endothelial growth factor (VEGF) was added (except for basal) to induce DNA synthesis, which was detected using [^3H] thymidine incorporation assay.
as §2, with “10” for “30”, “inducd” for “induce”, “assay. Means±S.E. (n=5) were presented.” for “assay.”
as §2, with “1” for “30”, “inducd” for “induce”, “assay. Means±S.E. (n=5) were presented.” for “assay.”
as §1
Confluent HUVECs were trypsinized, suspended in DMEM supplemented with 20% FBS, and seeded at 1.0×10^4 cells per well into 96-well plates. After 24 h, the cells were washed twice with PBS and starved with 2% FBS-M199 medium for 24 h. The cells were incubated with or without indicated reagents and growth factors (VEGF; 10 ng/mL) for 24 h and harvested. Before the harvest, cells were incubated with [^3H]thymidine (2 μCi/mL) for 4 h, harvested with Filter-Mate (Packard), and incorporated radioactivity was determined.
The effect of tested compounds on VEGF-induced cell proliferation of HUVECs was assessed with the [^3H]thymidine incorporation assay, and the results were illustrated in FIG. 5-FIG. 7.

[5] = system: VEGF-induced angiogenesis in Matrigel plug; assay: In vivo Matrigel plug assay (neovascular formation, hemoglobin concentration); conditions: nude mice, FIG. 9
Experimental: Nude mice were subcutaneously injected with a Matrigel plug containing 150 ng/ml vascular endothelial growth factor (VEGF). Vehicle or tested sample (YD-3, 10, 15, 17, 21, 25, 26) was orally administered into the mice. After a seven-day administration, the animals were euthanized and the plugs were cut of the mice for the measurement of angiogenic effect using the hemoglobin concentration as the parameter by means of a hemoglobin detection kit (Sigma). Means±S.E. (n=3) were presented. Nude mice (6 weeks of age) were given s.c. injections of 500 μL of Matrigel (Becton Dickinson, Bedford, Mass.) at 4° C. with or without YC-1 and growth factor (150 ng/mL VEGF). After injection, the Matrigel rapidly formed a plug. After 7 days, the skin of the mouse was easily pulled back to expose the Matrigel plug, which remained intact. After quantitative differences were noted and photographed, hemoglobin was measured, as an indication of blood vessel formation, using the Drabkin method (Drabkin reagent kit 525, Sigma, St. Louis, Mo.). The concentration of hemoglobin was calculated from a known amount of hemoglobin assayed in parallel. The in vivo Matrigel plug assay was used in this study to determine quantitative the anti-angiogenic effect of tested compounds.

angiogenesis = assay: Evaluation for anti-angiogenic activities (overall summary); conditions: summary statement
Experimental: 3-(4-Methylphenyl)-1H-indazole (10) and N^2-(substituted benzyl)-3-(4-methylphenyl)indazoles (15, 17, 21, 25, 26) were evaluated for anti-angiogenic activities.
In this study, 3-(4-methylphenyl)-1H-indazole (10) and five of the above mentioned N^2-regioisomers, namely, compounds 15, 17, 21, 25 and 26 were selected for evaluating their effects on VEGF-induced cell proliferation, on VEGF-induced tube formation of HUVECs in vitro, and on neovascular formation in vivo.

[6] = target: T1, protease activated receptor (PAR)-4 (Homo sapiens, UniProt Q96RI0); conditions: previous works; cited from earlier work
T1 sequence (Q96RI0 18-385): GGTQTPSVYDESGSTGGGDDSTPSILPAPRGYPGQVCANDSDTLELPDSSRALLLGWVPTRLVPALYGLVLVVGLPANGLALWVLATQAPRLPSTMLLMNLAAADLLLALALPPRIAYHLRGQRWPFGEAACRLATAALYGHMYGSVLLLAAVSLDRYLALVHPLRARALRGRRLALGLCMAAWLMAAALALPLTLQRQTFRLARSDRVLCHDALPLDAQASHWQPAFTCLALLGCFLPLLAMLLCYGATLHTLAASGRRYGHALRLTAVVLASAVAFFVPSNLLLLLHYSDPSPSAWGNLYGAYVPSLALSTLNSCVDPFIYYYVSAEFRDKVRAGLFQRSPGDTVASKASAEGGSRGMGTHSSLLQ

[7] = system: thrombin-induced Ca++ signal and thromboxane production; conditions: previous work; cited from earlier work

Row | SMILES | inhibition of VEGF-induced cell proliferation in HUVECs [1] | inhibition of VEGF-induced migration in HUVECs [1] | inhibition of VEGF-induced tube formation in HUVECs [1] | inhibition of VEGF-induced angiogenesis in Matrigel plug animal model [2] | inhibitory activity on tube formation compared with other tested compounds and YD-3 [3] | blockage of VEGF-induced tube formation of HUVECs ([3]; Matrigel-coated chamberslide) | activity on VEGF-induced cell proliferation of HUVECs compared with positive control YD-3 ([4]; 1 μM) | inhibitory effect on VEGF-induced cell proliferation of HUVECs ([3H]thymidine incorporation) ([4]; 10 μM, FIG. 6) | inhibitory effect on VEGF-induced cell proliferation of HUVECs ([3H]thymidine incorporation) ([4]; 30 μM, FIG. 5) | melting point [°C] | anti-angiogenic activity in Matrigel plug assay (hemoglobin concentration) ([5]; 150 ng/ml VEGF plug, oral, seven-day administration) | anti-angiogenic potency in Matrigel plug assay compared with positive control YD-3 [5] | anti-angiogenic activity (overall) (angiogenesis) | inhibition of PAR-4-dependent activation [6] | inhibition of low thrombin-induced Ca++ signal [7] | inhibition of low thrombin-induced thromboxane production [7]
1 | O=C(O)c1ccc(-c2nn(Cc3ccccc3)c3ccccc23)cc1 [CHS-6, 4-(1-benzyl-1H-indazol-3-yl)benzoic acid] | inhibit | inhibit | inhibit | inhibit |  |  |  |  |  |  |  |  |  |  |  | 
2 | COc1ccc(Cn2nc3ccccc3c2-c2ccc(C)cc2)cc1 [Compound 25, 2-(4-Methoxylbenzyl)-3-(4-methylphenyl)-2H-indazole] |  |  |  |  | more potent than other tested compounds and YD-3 | significant blockage | better activity than positive control YD-3 | significant inhibitory effect | significant inhibitory effect | 113.6 to 115 | significant anti-angiogenic activities | superior potency than the positive control YD-3 | significant anti-angiogenic activity |  |  | 
3 | CCOC(=O)c1ccc(-c2nn(Cc3ccccc3)c3ccccc23)cc1 [YD-3, Ethyl 4-(1-benzyl-1H-indazol-3-yl)benzoate] | inhibit | inhibit | inhibit | inhibit |  |  |  | significant inhibitory effect | significant inhibitory effect |  |  |  |  | selective and potent inhibitor | effectively inhibits | effectively inhibits
